Here are results for eight compounds from US8497278B2, “Imidazo[1,2-a]pyridine compounds” (priority 2008, dated 2013).

SMILES strings stand for the structures.

The target of assay [1] is T1, α2 subtype containing GABA-A receptors (Homo sapiens, UniProt P18507+P47869).
T1 construct: expressed in transfected cells; host or cells: Xenopus laevis oocytes, cRNA injected
Put plainly: Two-electrode voltage clamp electrophysiology in Xenopus oocytes, potentiation of GABA EC20 response, α2. The format is cell-based. As to conditions: 100 nM compound; for activation at 0.1 µM: read-out: Percentage of potentiation alpha2. Put shortly:
(§1)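 Xenopus oocytes expressing human α1, α2, α3 or α5 with β3 and γ2L subunits were voltage-clamped at −80 mV in ND96, pH 7.5. Potentiation of the GABA EC20 (60 μM) response by test compounds at 100 nM was measured, with one compound per oocyte. Oocytes showing low current or poor γ2L incorporation, judged by 1 μM chlordiazepoxide response, were excluded.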

For assay [2], the target named is T2, α5 subtype containing GABA-A receptors (Homo sapiens, UniProt P18507+P31644).
T2 construct: expressed in transfected cells; host or cells: Xenopus laevis oocytes, cRNA injected
T2 sequence (P31644 32-462): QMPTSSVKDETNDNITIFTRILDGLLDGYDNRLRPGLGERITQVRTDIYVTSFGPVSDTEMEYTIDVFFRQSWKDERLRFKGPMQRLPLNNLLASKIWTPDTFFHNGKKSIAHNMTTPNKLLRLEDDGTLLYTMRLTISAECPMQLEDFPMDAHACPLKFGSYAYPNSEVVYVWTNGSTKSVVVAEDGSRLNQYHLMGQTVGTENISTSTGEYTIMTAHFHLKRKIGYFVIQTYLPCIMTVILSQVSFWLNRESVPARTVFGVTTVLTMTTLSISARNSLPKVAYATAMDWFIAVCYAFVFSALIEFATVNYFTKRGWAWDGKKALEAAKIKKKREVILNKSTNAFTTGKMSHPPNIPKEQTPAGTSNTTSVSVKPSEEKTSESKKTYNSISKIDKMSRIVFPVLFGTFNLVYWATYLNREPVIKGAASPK
T2 sequence (P28472 26-473 partner): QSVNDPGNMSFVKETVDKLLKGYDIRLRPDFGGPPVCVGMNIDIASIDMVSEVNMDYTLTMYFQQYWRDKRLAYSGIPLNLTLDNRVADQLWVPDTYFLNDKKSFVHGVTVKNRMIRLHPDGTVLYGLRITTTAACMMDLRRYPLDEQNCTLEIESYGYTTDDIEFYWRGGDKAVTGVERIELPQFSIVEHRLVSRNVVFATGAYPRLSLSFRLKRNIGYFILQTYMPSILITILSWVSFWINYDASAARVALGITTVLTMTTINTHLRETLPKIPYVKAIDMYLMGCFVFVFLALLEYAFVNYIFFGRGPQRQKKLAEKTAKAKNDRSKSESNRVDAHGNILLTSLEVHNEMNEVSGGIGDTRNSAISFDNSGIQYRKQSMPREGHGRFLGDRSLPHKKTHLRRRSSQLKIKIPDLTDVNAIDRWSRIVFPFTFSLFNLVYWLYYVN
T2 sequence (P18507 40-475): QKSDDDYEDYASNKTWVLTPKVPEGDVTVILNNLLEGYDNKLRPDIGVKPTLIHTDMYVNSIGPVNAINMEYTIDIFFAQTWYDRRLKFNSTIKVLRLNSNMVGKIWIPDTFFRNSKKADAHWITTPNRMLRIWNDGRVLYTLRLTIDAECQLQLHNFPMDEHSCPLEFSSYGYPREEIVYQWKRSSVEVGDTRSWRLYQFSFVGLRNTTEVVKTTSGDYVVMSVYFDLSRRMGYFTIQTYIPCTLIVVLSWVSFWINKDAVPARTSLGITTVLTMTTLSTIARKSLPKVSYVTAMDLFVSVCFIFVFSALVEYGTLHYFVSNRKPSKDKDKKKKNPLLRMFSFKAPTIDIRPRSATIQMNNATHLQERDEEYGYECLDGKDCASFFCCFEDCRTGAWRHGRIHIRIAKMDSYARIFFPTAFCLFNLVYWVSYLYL
Put plainly: Two-electrode voltage clamp electrophysiology in Xenopus oocytes, potentiation of GABA EC20 response, α5. The format is cell-based. As to conditions: 100 nM compound. How it is done: (§2) Electrophysiology protocol: Oocytes were prepared from adult female Xenopus laevis frogs. cRNA encoding human α1, α2, α3, α5, β3 and γ2L GABAA receptor subunits was injected into the cytoplasm of stage 5 or 6 oocytes using the Robocyte Robot (Multi Channel Systems, Reutlingen, Germany). Two-electrode voltage clamp recordings were made in 96-well plates using the Robocyte Robot. Oocytes were impaled using recording heads with two glass electrodes containing 1.5 M potassium acetate and 0.5 M KCl and held at a membrane potential of −80 mV. Oocytes were continually perfused with a ND96 solution (96 mM NaCl, 2 mM KCl, 0.1 mM CaCl2, and 5 mM HEPES, pH 7.5) using a Gilson 222 XL Liquid Handler and Gilson Minipuls 3 Peristaltic Pump (Gilson Medical Electronics, Middleton, Wis., USA). The protocol consisted of three 20-s applications of GABA that gave a 20% of the maximum response (EC20: 60 μM) to allow for headroom to determine a baseline GABA response. To assess the potentiation, oocytes were first exposed to a single 1 μM chlordiazepoxide (CDP) as a potentiation standard. Oocytes with insufficient expression levels (currents below threshold) or insufficient γ2L subunit incorporation (judged by rapid desensitization upon GABA application, or by insufficient potentiation by CDP) were not included in analysis. Following this control application, a given oocyte was exposed to test compounds at 100 nM concentrations. Only one concentration of one compound was tested per oocyte. […] One skilled in the art will recognize that subtypes contribute to the effects of GABA-A modulators. Such that compounds favoring different subtypes can have different therapeutic effects. The magnitude of modulation, for example, partial modulators can influence the effects in vivo. “++” indicates a greater modulation that “+” so that at any given subtype “++” inducates a greater amount of modulation for that subtype. In some embodiments, modulation favoring alpha 1 relative to alpha2 and/or alpha 3 can have sedative hypnotic effects. In other embodiments, compounds with reduced selectivity of alpha 1 can express anxiolytic effects with less sedation. Compounds with selectivity for alpha 5 can have memory/cognition enhancing effects.

The target in assay [3] is T3, α3 subtype containing GABA-A receptors (Homo sapiens, UniProt P18507+P34903).
T3 construct: expressed in transfected cells; host or cells: Xenopus laevis oocytes, cRNA injected
T3 sequence (P34903 29-492): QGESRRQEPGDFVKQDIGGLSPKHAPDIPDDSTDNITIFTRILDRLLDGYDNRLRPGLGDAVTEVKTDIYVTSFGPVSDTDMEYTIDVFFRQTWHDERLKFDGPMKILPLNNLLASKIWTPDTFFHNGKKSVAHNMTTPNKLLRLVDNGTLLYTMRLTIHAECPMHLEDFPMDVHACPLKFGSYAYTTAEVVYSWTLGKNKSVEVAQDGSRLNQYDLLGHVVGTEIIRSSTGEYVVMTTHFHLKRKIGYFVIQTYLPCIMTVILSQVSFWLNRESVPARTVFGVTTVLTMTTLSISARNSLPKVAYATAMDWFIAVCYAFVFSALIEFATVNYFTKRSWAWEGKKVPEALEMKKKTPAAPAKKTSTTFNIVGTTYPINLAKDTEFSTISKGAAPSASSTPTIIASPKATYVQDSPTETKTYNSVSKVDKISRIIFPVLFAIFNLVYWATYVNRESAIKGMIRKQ
T3 sequence (P28472 26-473 partner): as the sequence (P28472 26-473 partner) above
T3 sequence (P18507 40-475): as the sequence (P18507 40-475) above
Put plainly: Two-electrode voltage clamp electrophysiology in Xenopus oocytes, potentiation of GABA EC20 response, α3. The format is cell-based. The following applies: 100 nM compound; for activation at 0.1 µM: read-out: Percentage of potentiation alpha3. How it is done:
as §2

The target in assay [4] is T4, α1 subtype containing GABA-A receptors (Homo sapiens, UniProt P14867+P18507).
T4 construct: expressed in transfected cells; host or cells: Xenopus laevis oocytes, cRNA injected
T4 sequence (P14867 28-456): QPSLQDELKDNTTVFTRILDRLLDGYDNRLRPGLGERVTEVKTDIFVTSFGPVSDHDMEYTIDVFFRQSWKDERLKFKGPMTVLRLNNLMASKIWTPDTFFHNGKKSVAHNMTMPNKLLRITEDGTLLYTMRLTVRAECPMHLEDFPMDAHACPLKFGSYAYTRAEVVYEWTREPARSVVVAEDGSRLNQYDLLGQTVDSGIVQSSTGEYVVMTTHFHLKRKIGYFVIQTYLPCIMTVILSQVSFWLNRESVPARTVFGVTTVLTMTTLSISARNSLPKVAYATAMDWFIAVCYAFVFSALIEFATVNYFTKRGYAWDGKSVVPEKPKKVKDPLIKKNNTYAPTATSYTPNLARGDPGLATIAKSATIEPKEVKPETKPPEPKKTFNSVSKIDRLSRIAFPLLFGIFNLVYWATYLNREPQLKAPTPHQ
T4 sequence (P28472 26-473 partner): as the sequence (P28472 26-473 partner) above
T4 sequence (P18507 40-475): as the sequence (P18507 40-475) above
Put plainly: Two-electrode voltage clamp electrophysiology in Xenopus oocytes, potentiation of GABA EC20 response, α1. Format: cell-based. As to conditions: 100 nM compound; for activation at 0.1 µM: read-out: Percentage of potentiation alpha1. In a few lines:
as §1

The test system of assay [5] is central benzodiazepine receptors. Put plainly: Central benzodiazepine receptor binding (test of Speth et al.). The following applies: 1000 nM of the compound. In a few lines: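 Radioligand binding by the Speth et al. method. Specific binding is total minus nonspecific binding, the latter measured with excess unlabelled ligand. Compounds screened at 1.0E-09, 1.0E-07 and 1.0E-05 M in single determination; values given as percent inhibition at 1000 nM compound.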

For the next assay, the system named is Swiss Webster (CFW) mice. Put plainly: Four Plate Test (FPT). Format: in vivo. The following applies: mouse, 30 min before test, 2 min session. The text has this:
Four Plate Test (FPT) Protocol: The four plate test (FPT) is an animal model of anxiety in which simple ongoing behavior (exploration of novel surroundings) is suppressed by the delivery of mild electric foot-shock contingent to quadrant crossing (Aron, et al., 1971). Clinically effective classes of anxiolytic compounds such as benzodiazepines, selective serotonin reuptake inhibitors, or 5-HT1A receptor agonists produce a marked anti-punishment effect (an increase in punished crossings), which is thought to indicate anxiolytic activity (Aron, et al., 1971; Bourin, et al., 1992; Hascoet, et al., 2000; Ring, et al., 2006). The four plate apparatus (Bioseb, Chaville France) consists of a cage (18×25×16 cm) floored by four identical rectangular metal plates (8×11 cm) separated from one another by a gap of 4 mm. The plates are connected to a shocker unit that can generate electric foot shocks.
Male Swiss Webster (CFW) mice from Charles River (Wilmington, Mass.) were used for the FPT. Mice were received at 3-weeks of age. Upon receipt, mice were assigned unique identification numbers (tail marked) and were group housed with 4 mice per cage in mouse ventilated racks. All animals remained housed in groups of four during the remainder of the study. All mice were acclimated to the colony room for at least one week prior to testing and were subsequently tested at an average age of 4 weeks of age. During the period of acclimation, mice […] were examined on a regular basis, handled, and weighed to assure adequate healtH, D and suitability. Animals were maintained on a 12/12 light/dark cycle. The room temperature was maintained between 20 and 23° C. with a relative humidity maintained between 30% and 70%. Chow and water were provided ad libitum for the duration of the study. In each test, animals were randomly assigned across treatment groups. Alprazolam (0.3 mg/kg) was used as the positive control. Compounds of the present invention, vehicle (45% hydroxypropyl beta-cyclodextrin) and alprazolam were administered orally to all groups (n=10 mice per group) 30 minutes prior to behavioral testing. Following pretreatment, mice were gently placed in the four plate chamber and allowed to explore the enclosure for 18 seconds. After the exploration period, every time the mouse crossed from one plate to another, the experimenter, blind to the dosing conditions, administered a mild electric foot-shock, and referred to as a punished crossing. The intensity and duration of the foot-shock were 0.5 mA for 0.5 seconds. The number of punished crossings was recorded during the 2 min test session. The plates were thoroughly cleaned with 70% ethanol immediately after each mouse. All data were analyzed using an analysis of variance (ANOVA) followed by Fisher's PLSD post hoc test. An effect was considered significance if p<0.05. Statistical outliers above or below 2 standard deviations from the mean in any of the […] were removed from the final analysis.

T1 sequence (P47869 29-451): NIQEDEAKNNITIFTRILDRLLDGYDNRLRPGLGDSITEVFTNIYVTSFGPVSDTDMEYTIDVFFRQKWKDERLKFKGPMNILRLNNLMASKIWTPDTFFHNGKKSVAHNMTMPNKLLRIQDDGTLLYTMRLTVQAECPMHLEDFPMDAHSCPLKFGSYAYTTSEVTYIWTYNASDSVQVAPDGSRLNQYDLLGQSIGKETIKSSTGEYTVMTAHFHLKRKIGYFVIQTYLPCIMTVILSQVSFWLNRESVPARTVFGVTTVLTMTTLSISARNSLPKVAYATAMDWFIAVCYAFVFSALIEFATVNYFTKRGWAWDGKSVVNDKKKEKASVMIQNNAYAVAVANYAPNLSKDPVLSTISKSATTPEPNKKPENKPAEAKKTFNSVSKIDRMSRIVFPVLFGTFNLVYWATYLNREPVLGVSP
T1 sequence (P28472 26-473 partner): as the sequence (P28472 26-473 partner) above
T1 sequence (P18507 40-475): as the sequence (P18507 40-475) above

Consider `NNC(=O)c1nc(Cc2c(-c3ccc(Cl)cc3)nc3ccc(F)cn23)no1` [Compound 216, 3-((2-(4-chlorophenyl)-6-fluoroimidazo[1,2-a]pyridin-3-yl)methyl)-1,2,4-oxadiazole-5-carbohydrazide], for which the activation at 0.1 µM in assay [1] is ≥ 50%; in assay [2] (read-out: Percentage of potentiation alpha5) it was -10 to 10%; in assay [3] it was 10 to 50%; in assay [4], 10 to 50%.

For the compound `CNC(=O)c1nc(Cc2c(-c3ccc(F)cc3)nc3ccc(F)cn23)no1` [Compound 220, 3-((2-(4-fluorophenyl)-6-fluoroimidazo[1,2-a]pyridin-3-yl)methyl)-1,2,4-oxadiazole-5-N-methyl-carboxamide], the “Percentage of potentiation alpha2” value in assay [1] was “+ (percentage of potentiation is greater than or equal to 10% but less than 50% in the presence of 100 nM of the compound)”. In addition, in assay [2], the “Percentage of potentiation alpha5” value is given as 0 (percentage of potentiation is between about 10% to about −10%). For the same compound, the “Percentage of potentiation alpha3” value in assay [3] is 0 (percentage of potentiation is between about 10% to about −10%). Further, the “Percentage of potentiation alpha1” value in assay [4] is recorded as 0 (percentage of potentiation is between about 10% to about −10%).

Consider `NC(=O)c1nccn1Cc1c(-c2ccc(Cl)cc2)nc2ccccn12` [Compound 76, 1-((2-(4-chlorophenyl)H-imidazo[1,2-a]pyridin-3-yl)methyl)-1H-imidazole-2-carboxamide], for which the “Percentage of potentiation alpha2” value in assay [1] was “+ (percentage of potentiation is greater than or equal to 10% but less than 50% in the presence of 100 nM of the compound)”. Further, the “Percentage of potentiation alpha1” value in assay [4] is listed as 0 (percentage of potentiation is between about 10% to about −10%). Also, in assay [5], the “% Inhibition at 1000 nM for CBZD” value is on record as “++ (percentage of inhibition of central BZD site binding is greater than 80% in the presence of 1000 nM of the compound)”. The “Number of Punished Crossings Mean ± S.E.M.” value was found to be 6.7 ± 0.45 in the assay on Swiss Webster (CFW) mice (3 mg/kg PO), 6.9 ± 0.35 with Swiss Webster (CFW) mice (10 mg/kg PO) and 6.3 ± 0.62 with Swiss Webster (CFW) mice (30 mg/kg PO).

For the compound `Fc1ccc(-c2nc3ccc(F)cn3c2Cn2nccn2)cc1` [Compound 60, 3-((2H-1,2,3-triazol-2-yl)methyl)-6-fluoro-2-(4-fluorophenyl)H-imidazo[1,2-a]pyridine], the “Percentage of potentiation alpha2” value in assay [1] is “+ (percentage of potentiation is greater than or equal to 10% but less than 50% in the presence of 100 nM of the compound)”. Moreover, the “Percentage of potentiation alpha1” value in assay [4] is 0 (percentage of potentiation is between about 10% to about −10%). Further, the “% Inhibition at 1000 nM for CBZD” value in assay [5] is listed as “++ (percentage of inhibition of central BZD site binding is greater than 80% in the presence of 1000 nM of the compound)”. The “Number of Punished Crossings Mean ± S.E.M.” value is given as 6.3 ± 0.45 in the assay with Swiss Webster (CFW) mice (3 mg/kg PO), 6.3 ± 0.70 in the assay on Swiss Webster (CFW) mice (10 mg/kg PO) and 6.0 ± 0.30 with Swiss Webster (CFW) mice (30 mg/kg PO).

For the compound `CN1CC[C@@H](Oc2ccnc(NCc3c(-c4ccc(F)cc4)nc4ccc(Cl)cn34)n2)C1` [Compound 183, (R)—N-((6-chloro-2-(4-fluorophenyl)imidazo[1,2-a]pyridin-3-yl)methyl)-4-(1-methylpyrrolidin-3-yloxy)pyrimidin-2-amine], the figures for the activation at 0.1 µM in assay [1], in assay [3] and in assay [4] were ≥ 50%, -10 to 10% and ≥ 50%, respectively. Further, in assay [5], the “% Inhibition at 1000 nM for CBZD” value is on record as “++ (percentage of inhibition of central BZD site binding is greater than 80% in the presence of 1000 nM of the compound)”.

On to `Fc1ccc(-c2nc3ccc(F)cn3c2Cn2ccnn2)cc1` [Compound 61, 3-((1H-1,2,3-triazol-1-yl)methyl)-6-fluoro-2-(4-fluorophenyl)H-imidazo[1,2-a]pyridine], for which the “Percentage of potentiation alpha2” value in assay [1] is recorded as “+ (percentage of potentiation is greater than or equal to 10% but less than 50% in the presence of 100 nM of the compound)”. The “Percentage of potentiation alpha3” value in assay [3] is reported as “++ (percentage of potentiation is greater than or equal to 50% in the presence of 100 nM of the compound)”. For the same compound, in assay [4], the “Percentage of potentiation alpha1” value is listed as “+ (percentage of potentiation is greater than or equal to 10% but less than 50% in the presence of 100 nM of the compound)”. For the same compound, in assay [5], the “% Inhibition at 1000 nM for CBZD” value was “++ (percentage of inhibition of central BZD site binding is greater than 80% in the presence of 1000 nM of the compound)”.

With `COC1=CC(=O)N(Cc2c(-c3ccc(Cl)cc3)nc3ccc(Cl)cn23)C1` [Compound 114, 1-((6-chloro-2-(4-chlorophenyl)H-imidazo[1,2-a]pyridin-3-yl)methyl)-4-methoxy-1H-pyrrol-2(5H)-one], the “Percentage of potentiation alpha2” value in assay [1] is “+ (percentage of potentiation is greater than or equal to 10% but less than 50% in the presence of 100 nM of the compound)”. For the same compound, the “Percentage of potentiation alpha5” value in assay [2] is reported as 0 (percentage of potentiation is between about 10% to about −10%). For the same compound, in assay [3], the “Percentage of potentiation alpha3” value is “+ (percentage of potentiation is greater than or equal to 10% but less than 50% in the presence of 100 nM of the compound)”. The “Percentage of potentiation alpha1” value in assay [4] is given as “++ (percentage of potentiation is greater than or equal to 50% in the presence of 100 nM of the compound)”.

With `CN(C)CCNC1=CC(=O)N(Cc2c(-c3ccc(Br)cc3)nc3ccccn23)C1` [Compound 242, 1-((2-(4-bromophenyl)imidazo[1,2-a]pyridin-3-yl)methyl)-4-(2-(dimethylamino)ethylamino)-1H-pyrrol-2(5H)-one], the results for the activation at 0.1 µM in assay [1], in assay [3] and in assay [4] were 10 to 50%, -10 to 10% and 10 to 50%, respectively. The “% Inhibition at 1000 nM for CBZD” value in assay [5] is on record as “++ (percentage of inhibition of central BZD site binding is greater than 80% in the presence of 1000 nM of the compound)”.
